These results are taken from publication PMC12040169 (PLOS Biology, 2025).

For orientation: viability means a read-out of living cells in per cent, often relative to untreated cells.

The nature of the data set: in vitro. To be noted: human, hela cells, % viability.

Turning to `O=S(=O)(NCCSc1nnnn1-c1ccccc1)c1cccs1` [CBK268013], the viability at 28.5 h, 10 µM came to 112%.
For `COc1ccccc1N1C(=O)c2ccc(C(=O)Nc3cc([N+](=O)[O-])ccc3O)cc2C1=O` [CBK264272], the viability at 28.5 h, 10 µM stood at 95.3%.
Then `CC(NC(=O)c1cc(-c2ccccc2)nc2ccccc12)c1cccc(S(N)(=O)=O)c1` (stereo not shown) [CBK298285], with 79.5%; and `c1ccc2c(c1)/C(=N/OCCN1CCCC1)CC21CCCCC1` [CBK013322], with 110%.
For `C=C(C)CN1CCN(C(=O)c2c(C)oc3ccc(O)cc23)CC1` [CBK282626], the viability at 28.5 h, 10 µM was determined as 95%.
`Nn1c(SCC(=O)Nc2ccc3c(c2)OCCO3)nnc1-c1ccccn1` [CBK267551]: the viability at 28.5 h, 10 µM amounted to 87.4%.
Regarding `O=c1nc(NS(=O)(=O)c2ccc(Oc3ccccc3)cc2)c(F)c[nH]1` [CBK067571], the viability at 28.5 h, 10 µM was determined as 89.3%.
`CCOC(=O)c1cnc2ccc(OC)cc2c1NCCN1CCOCC1` [CBK304199]: the viability at 28.5 h, 10 µM amounted to 87.7%.
Take `O=C(N[C@H]1CCN2C(=O)c3cc(-c4cccs4)ccc3NC(=O)[C@H]12)c1cnccn1` [CBK289337]: the viability at 28.5 h, 10 µM was found to be 116%.
As for `CC(=O)Oc1cccc(CN2CCCN(S(=O)(=O)c3ccc(-c4ccccc4)cc3)CC2)c1` [CBK063113], the viability at 28.5 h, 10 µM was 94.1%.
As to `O=C(NC1CCN(Cc2ccccc2)C1)c1ccc(F)cc1` (stereo not shown) [CBK283044], the viability at 28.5 h, 10 µM was found to be 97.8%.
As for `Cc1ccc(C(=O)Nc2ccccc2C(=O)O)cc1S(=O)(=O)NCc1ccccc1` [CBK263212], the viability at 28.5 h, 10 µM came out at 98.7%.
On to `Cn1ccc2ccc(C(=O)Nc3nccs3)cc21` [CBK287910], for which the viability at 28.5 h, 10 µM is 106%.
Consider `Cc1cccc(=O)n1CCCNc1cc(C2CCOC2)nc(N)n1` (stereo not shown) [CBK307030], for which the viability at 28.5 h, 10 µM is 81.9%.
With `COc1ccccc1OCC(=O)N1CCC(Cn2cncn2)(C2CCCCC2)CC1` [CBK136797], the viability at 28.5 h, 10 µM was 91.9%.
On to `CCC1(C)CC(=O)c2cc(NC(=O)N(CCO)CCO)ccc2O1` (stereo not shown) [CBK307003], for which the viability at 28.5 h, 10 µM was 116%.
Consider `c1ccc2c(c1)CCCN2Cc1ncc[nH]1` [CBK138332], for which the viability at 28.5 h, 10 µM was determined as 89.2%.
For `CC(C)(C)c1ccc(OCC(O)CNS(=O)(=O)O)cc1` (stereo not shown) [CBK261169N], the viability at 28.5 h, 10 µM stood at 102%.
Take `O=C(NC(Nc1ncccn1)C(Cl)(Cl)Cl)c1ccccc1` (stereo not shown) [CBK261408]: the viability at 28.5 h, 10 µM was found to be 107%.
Then `Cc1ccc2oc(-c3cc(NC(=O)c4nc[nH]n4)ccc3O)nc2c1` [CBK266900], with 101%.
Turning to `COC(=O)c1c(NC(=O)COc2ccccc2C(C)C)sc2c1CCCC2` [CBK266722], the viability at 28.5 h, 10 µM amounted to 93.5%.
With `CCCC(=O)Nc1nc(-c2ccc(C)cc2)c(C)s1` [CBK287763], the viability at 28.5 h, 10 µM worked out at 110%.
As to `O=C1CN(C(=O)NC2CCc3ccccc32)CCN1` (stereo not shown) [CBK155878], the viability at 28.5 h, 10 µM was 97.5%.
With `O=C(Cc1c[nH]c2ccccc12)N1CCC2(CCCN(C(=O)c3ccc(OC(F)(F)F)cc3)C2)C1` (stereo not shown) [CBK131579], the viability at 28.5 h, 10 µM was 97.8%.
Then `COc1ccc(NS(=O)(=O)c2cccs2)c(OC)c1` [CBK043915], with 93%; and `COc1cc([N+](=O)[O-])ccc1NC(=S)NNS(=O)(=O)c1cc(Cl)c(Cl)cc1Cl` [CBK266863], with 96.2%.
Turning to `CC(=O)N1CCc2c([nH]c3c(C)cccc23)C12CCN(C/C=C\c1ccccc1)C2` (stereo not shown) [CBK040414], the viability at 28.5 h, 10 µM came to 90.8%.
Then `Oc1ccc(/C=N/Nc2nnc(-c3ccccc3)c(-c3ccccc3)n2)cc1` [CBK262011], with 112%.
`CCN(CC(=O)Nc1ccc2c(c1)OCCO2)S(=O)(=O)c1ccsc1C(=O)O` [CBK296717]: the viability at 28.5 h, 10 µM was 95.5%.
Then `CCCn1nc(C)c(-c2cncn2CC(C)N2CCC(C)CC2)c1C` (stereo not shown) [CBK281791], with 85.2%.
As for `O=C(Nc1nccs1)C1CCCN(C(=O)c2ccco2)C1` (stereo not shown) [CBK296725], the viability at 28.5 h, 10 µM turned out to be 98.7%.
For the compound `Cn1c(=O)c2c(ncn2Cc2ccc(C#N)cc2)n(C)c1=O` [CBK134217], the viability at 28.5 h, 10 µM came to 106%.
As to `CC(C)(CNC(=O)c1ccc(=O)n(CC(=O)NC2CCCCC2)c1)c1ccc(F)cc1` [CBK285984], the viability at 28.5 h, 10 µM is 83.9%.
Take `O=c1[nH]c(=O)c2cc(S(=O)(=O)NC3CCN(Cc4ccccc4)C3)ccc2[nH]1` (stereo not shown) [CBK286380]: the viability at 28.5 h, 10 µM worked out at 109%.
Take `O=C(Nc1ccc2[nH]ccc2c1)c1ccc(F)c(F)c1` [CBK159683]: the viability at 28.5 h, 10 µM was 88.3%.
With `O=C(c1ccco1)N1CCN(C2C3CCCC2CNC3)CC1` (stereo not shown) [CBK284992], the viability at 28.5 h, 10 µM was determined as 94.4%.
In the case of `Cc1cc(C)n2nc(SCC(=O)O)nc2n1` [CBK268536], the viability at 28.5 h, 10 µM was found to be 111%.
Then `N#Cc1ccc(COc2cccc(Cl)c2Cl)cc1` [CBK002611], with 92.5%; and `C#CCN1N=C(c2ccc(OC)cc2)Cn2c(cc3sccc32)C1=O` [CBK284209], with 91.2%; and `FC(F)(F)c1cc(-c2cn3ccnc3c(Nc3ccc4[nH]ccc4c3)n2)cc(C(F)(F)F)c1` [CBK066356], with 91.7%.
In the case of `CC(C)c1ccc(C2C(C(=O)c3ccco3)=C(O)C(=O)N2CCCN(C)C)cc1` (stereo not shown) [CBK264549], the viability at 28.5 h, 10 µM was determined as 94.8%.
For `COC(=O)CCSc1nc(C)nc2c1c(=O)n(C)c(=O)n2CC(C)C` [CBK305891], the viability at 28.5 h, 10 µM worked out at 82.7%.
Then `O=C(O)c1sccc1Oc1ccc(F)cc1[N+](=O)[O-]` [CBK066847], with 112%; and `COc1ccc([C@@]23CC[C@@H](NS(=O)(=O)Cc4ccccc4)C[C@@H]2N(C)CC3)cc1OC` [CBK056665T], with 91.4%; and `O=C(Cn1cc(C(=O)COc2ccccc2)c2ccccc21)Nc1ccccc1` [CBK267653], with 110%.
As for `O=C(Nc1cccnc1N1CCNCC1)c1ccccn1` [CBK029425T], the viability at 28.5 h, 10 µM came out at 116%.
Then `CCN(CC)CCn1c(NC(=O)CCC2CCNC2)nc2ccccc21` (stereo not shown) [CBK304693], with 92.3%; and `CCNC(=O)Nc1cc2cccnc2nc1-c1ccc(S(C)(=O)=O)cc1` [CBK070706], with 93.3%.
Consider `COC(=O)c1ccccc1NC(=O)CSc1nnc(-c2sc(N)nc2C)o1` [CBK266250], for which the viability at 28.5 h, 10 µM is 100%.
Consider `CCOC(=O)c1c(NC(=O)CSc2n[nH]c(N)n2)sc(C)c1C` [CBK266412], for which the viability at 28.5 h, 10 µM is 94.4%.
In the case of `COc1ccc2c(c1)nc1n2CCC1OC(C)=O` (stereo not shown) [CBK115379], the viability at 28.5 h, 10 µM amounted to 100%.
In the case of `O=C1Nc2c(cnn2-c2ccc(F)cc2)C2=NCCN12` [CBK284351], the viability at 28.5 h, 10 µM was found to be 104%.
Then `Cn1c(=O)c2c(ncn2CC(=O)Nc2ccc(Cl)cc2Cl)n(C)c1=O` [CBK133227], with 86%; and `OCCN1CC2(CCN(CCc3c[nH]c4ccccc34)CC2)c2ccccc21` [CBK144607T], with 94.2%.
In the case of `Cn1cc(CNCC2CCN(c3ccccc3)C2)c(-c2cccnc2)n1` (stereo not shown) [CBK304155], the viability at 28.5 h, 10 µM was 95.7%.
For `C[C@]12C(=O)c3ccccc3NC(=O)C1[C@H]2C(=O)N1CCCCC1` (stereo partly shown) [CBK285281], the viability at 28.5 h, 10 µM is 92%.
Then `N#CCCN1CCCC2(C1)NCCc1c2[nH]c2ccccc12` (stereo not shown) [CBK040031], with 97%.
As to `COCC1(C(=O)N2CCN(c3ccccc3C#N)CC2)CCC1` [CBK304361], the viability at 28.5 h, 10 µM was 93%.
For the compound `CC(C)(C)NC(=O)Cn1ccc2ccnc(-c3cccs3)c21` [CBK284737], the viability at 28.5 h, 10 µM is 94.1%.
Then `COc1ccc(Br)cc1S(=O)(=O)NCc1cccnc1` [CBK264023], with 90.7%; and `CNc1cc(C(=O)N[C@@H]2CCOC[C@H]2Oc2ccc(CO)cc2)ccn1` [CBK306606], with 98.1%; and `CN(C)c1cccc2c(S(=O)(=O)n3ccn(-c4cccc(C(F)(F)F)c4)c3=O)cccc12` [CBK106578], with 109%.
For the compound `Cc1cc2c(cc3c(=O)n(CC(=O)N4CCCC4)nc(C)n32)o1` [CBK283631], the viability at 28.5 h, 10 µM was found to be 93.1%.
On to `COc1ccccc1N1CCN(C(=O)NCC2CCCCC2)CC1` [CBK155588], for which the viability at 28.5 h, 10 µM worked out at 98.3%.
Regarding `Nc1ncnc2c1nc(OCc1ccccc1)n2C1CC(O)C(CO)O1` (stereo not shown) [CBK201164], the viability at 28.5 h, 10 µM was determined as 94.9%.
Consider `O=C(c1nccc2ccccc12)N1CCN(Cc2ccccc2)CC1` [CBK200176], for which the viability at 28.5 h, 10 µM is 98%.
For `CCN(CC)C(=O)CN1C(=O)N2CCN=C2c2ccccc21` [CBK283944], the viability at 28.5 h, 10 µM is 94.9%.
With `CC(=O)N1CCc2c(nc(N(C)C)nc2NCCCOC(C)C)C1` [CBK306745], the viability at 28.5 h, 10 µM turned out to be 84.4%.
As for `Cc1[nH]c2cc(C(=O)O)ccc2c1CC(=O)O` [CBK269955], the viability at 28.5 h, 10 µM worked out at 98%.
As to `CC(C)N1CC[C@@H]2[C@H]1C(=O)NC[C@H](CCC(=O)Nc1ccccc1)N2C` [CBK289030], the viability at 28.5 h, 10 µM was 86.1%.
`Cc1ccc(OC(C)C(=O)N2CCCc3c(cnn3C)C2)cc1` (stereo not shown) [CBK282242]: the viability at 28.5 h, 10 µM was found to be 98.2%.
Then `Cc1ccc([N+](=O)[O-])cc1NC1OCC(O)C(O)C1O` (stereo not shown) [CBK262026], with 98.8%; and `Cc1cccc(-c2ccc(CC3(C(N)=O)CCN(C(=O)COc4ccccc4)CC3)cc2)c1` [CBK285797], with 93.6%.
Turning to `CC(=O)Nc1ccc(CNC(=O)CN2CCCC(c3ncc[nH]3)C2)cc1` (stereo not shown) [CBK307718], the viability at 28.5 h, 10 µM was determined as 96.5%.
Then `O=C1N[C@H]2CCCN(C(=O)CCN3CCCC3)[C@H]2C/C=C/CCOc2ccccc21` [CBK292162], with 112%; and `COc1csc(C(=O)Nc2ncn(CC(=O)N3CCCCCC3)n2)c1` [CBK304463], with 84.6%; and `COc1ccc([C@@]23CC[C@@H](NC(=O)Nc4cccc(Br)c4)C[C@@H]2N(C)CC3)cc1OC` [CBK038225T], with 91.4%.
As to `COc1nc(-c2cccnc2)cn2ccnc12` [CBK093490], the viability at 28.5 h, 10 µM came to 82.1%.
Then `O=c1[nH]nc2n1-c1ccccc1OC2` [CBK010583], with 104%.
